This assay deals with T1, hGLP-1R (Homo sapiens, UniProt P43220).
T1 construct: expressed in transfected cells; host or cells: CHO-K1 (hGLP-1R and CRE-luciferase reporter)
T1 sequence (P43220 24-463): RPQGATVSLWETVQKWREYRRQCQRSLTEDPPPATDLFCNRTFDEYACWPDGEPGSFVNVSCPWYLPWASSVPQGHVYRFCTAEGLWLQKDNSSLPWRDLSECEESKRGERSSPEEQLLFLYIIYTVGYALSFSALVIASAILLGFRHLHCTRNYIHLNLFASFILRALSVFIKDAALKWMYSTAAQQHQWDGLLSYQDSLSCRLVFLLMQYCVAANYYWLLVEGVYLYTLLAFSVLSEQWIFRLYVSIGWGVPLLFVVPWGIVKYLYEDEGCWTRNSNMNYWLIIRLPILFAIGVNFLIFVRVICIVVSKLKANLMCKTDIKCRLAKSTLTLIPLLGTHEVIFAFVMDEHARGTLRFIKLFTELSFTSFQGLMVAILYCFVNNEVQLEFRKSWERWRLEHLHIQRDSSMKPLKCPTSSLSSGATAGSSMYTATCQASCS
As to the kind of experiment: GLP-1R agonist activity measurement (cell-based luciferase assay). The note with it: CHO-K1/hGLP-1R/CRE-luciferase cell line, 4 h treatment, Bright-Glo luminescence. The protocol: Experimental Example 1: GLP-1R Agonist Activity Measurement (Cell-Based Luciferase Assay)
The CHO-K1/hGLP-1R/CRE-luciferase cell line was seeded at 15000 cells in a 96-well plate. As a medium, Ham's F-12 Nutrient medium was used. After culturing for 18 hours in a 5% CO2 incubator maintained at 37° C., the drug was treated. Each drug plated at 9 concentrations was dissolved in DMEM/F-12+1% FBS medium and treated with 100 ul of each cell line. After culturing for 4 h, 30 ul of assay reagent was added to each well using the Bright-Glo™ luciferase assay system kit. After the plate was stored at room temperature for 15 min, luminescence was measured with a SpectraMax M5 instrument.
Regarding `O=C(O)c1ccc2nc(Cc3ccc(-c4cccnc4OCc4ccc(Cl)cc4F)cc3)n(C[C@@H]3CCO3)c2c1` [Example 1, (S)-2-(4-(2-((4-chloro-2-fluorobenzyl)oxy)pyridin-3-yl)benzyl)-1-(oxetan-2-ylmethyl)-1H-benzo[d]imidazol-6-carboxylic acid], the half-maximal effective concentration (EC50) came out at 0.316 nM.

The compound `CC1(c2ccc(Cl)cc2F)Oc2cccc(-c3ccc(Cc4nc5ccc(C(=O)O)cc5n4C[C@@H]4CCO4)cc3)c2O1` (stereo partly drawn) [Example 2, 2-(4-(2-(4-chloro-2-fluorophenyl)-2-methylbenzo[d][1,3]dioxol-4-yl)benzyl)-1-(((S)-oxetan-2-yl)methyl)-1H-benzo[d]imidazol-6-carboxylic acid] gave a 50% effective concentration (EC50) of 0.108 nM.

Compound `CC1(c2ccc(Cl)cc2F)Oc2cccc(-c3ccc(Cc4nc5ccc(C(=O)O)cc5n4C[C@@H]4CCO4)cc3F)c2O1` (stereo partly drawn) [Example 3, 2-(4-(2-(4-chloro-2-fluorophenyl)-2-methylbenzo[d][1,3]dioxol-4-yl)-3-fluorobenzyl)-1-(((S)-oxetan-2-yl)methyl)-1H-benzo[d]imidazol-6-carboxylic acid] came in with an EC50 of 0.041 nM.

Compound `CC1(c2ccc(Cl)cc2F)Oc2cccc(-c3ccc(Cc4nc5ccc(C(=O)O)cc5n4Cc4cnco4)cc3)c2O1` (stereo not shown) [Example 4, 2-(4-(2-(4-chloro-2-fluorophenyl)-2-methylbenzo[d][1,3]dioxol-4-yl)benzyl)-1-(oxazol-5-ylmethyl)-1H-benzo[d]imidazol-6-carboxylic acid] gave an EC50 of 0.278 nM.

For the compound `CC1(c2ccc(Cl)cc2F)Oc2cccc(-c3ccc(Cc4nc5ccc(C(=O)O)cc5n4Cc4cnco4)cc3F)c2O1` (stereo not shown) [Example 5, 2-(4-(2-(4-chloro-2-fluorophenyl)-2-methylbenzo[d][1,3]dioxol-4-yl)-3-fluorobenzyl)-1-(oxazol-5-ylmethyl)-1H-benzo[d]imidazol-6-carboxylic acid], the EC50 came out at 0.16 nM.

`O=C(O)c1ccc2nc(Cc3ccc(-c4cccnc4OCc4ccc(Cl)cc4F)cc3)n(Cc3cnco3)c2c1` [Example 6, 2-(4-(2-((4-chloro-2-fluorobenzyl)oxy)pyridin-3-yl)benzyl)-1-(oxazol-5-ylmethyl)-1H-benzo[d]imidazol-6-carboxylic acid]: the EC50 was determined as 3.5 nM.

`CCCn1cnnc1Cn1c(Cc2ccc(-c3cccnc3OCc3ccc(Cl)cc3F)cc2)nc2ccc(C(=O)O)cc21` [Example 7, 2-(4-(2-((4-chloro-2-fluorobenzyl)oxy)pyridin-3-yl)benzyl)-1-((4-propyl-4H-1,2,4-triazol-3-yl)methyl)-1H-benzo[d]imidazol-6-carboxylic acid]: the EC50 is > 80 nM.

With `CCCn1cnnc1Cn1c(Cc2ccc(-c3cccc4c3OC(C)(c3ccc(Cl)cc3F)O4)cc2)nc2ccc(C(=O)O)cc21` (stereo not shown) [Example 8, 2-(4-(2-(4-chloro-2-fluorophenyl)-2-methylbenzo[d][1,3]dioxol-4-yl)benzyl)-1-((4-propyl-4H-1,2,4-triazol-3-yl)methyl)-1H-benzo[d]imidazol-6-carboxylic acid], the EC50 came to 0.914 nM.

As for `CCCn1cnnc1Cn1c(Cc2ccc(-c3cccc4c3OC(C)(c3ccc(Cl)cc3F)O4)c(F)c2)nc2ccc(C(=O)O)cc21` (stereo not shown) [Example 9, 2-(4-(2-(4-chloro-2-fluorophenyl)-2-methylbenzo[d][1,3]dioxol-4-yl)-3-fluorobenzyl)-1-((4-propyl-4H-1,2,4-triazol-3-yl)methyl)-1H-benzo[d]imidazol-6-carboxylic acid], the EC50 is 0.772 nM.

For the compound `CCn1cncc1Cn1c(Cc2ccc(-c3cccc4c3OC(C)(c3ccc(Cl)cc3F)O4)cc2)nc2ccc(C(=O)O)cc21` (stereo not shown) [Example 10, 2-(4-(2-(4-chloro-2-fluorophenyl)-2-methylbenzo[d][1,3]dioxol-4-yl)benzyl)-1-((1-ethyl-1H-imidazol-5-yl)methyl)-1H-benzo[d]imidazol-6-carboxylic acid], the response was half-maximal at 0.0216 nM (EC50).

In the case of `CCn1cncc1Cn1c(Cc2ccc(-c3cccc4c3OC(C)(c3ccc(Cl)cc3F)O4)c(F)c2)nc2ccc(C(=O)O)cc21` (stereo not shown) [Example 11, 2-(4-(2-(4-chloro-2-fluorophenyl)-2-methylbenzo[d][1,3]dioxol-4-yl)-3-fluorobenzyl)-1-((1-ethyl-1H-imidazol-5-yl)methyl)-1H-benzo[d]imidazol-6-carboxylic acid], the EC50 is 0.0256 nM.

For `CC1(c2ccc(Cl)cc2F)Oc2cccc(-c3ccc(Cc4nc5ccc(C(=O)O)cc5n4C[C@@H]4CCCO4)cc3)c2O1` (stereo partly drawn) [Example 12, 2-(4-(2-(4-chloro-2-fluorophenyl)-2-methylbenzo[d][1,3]dioxol-4-yl)benzyl)-1-(((S)-tetrahydrofuran-2-yl)methyl)-1H-benzo[d]imidazol-6-carboxylic acid], a half-maximal effect (EC50) was put at 0.223 nM.

Regarding `O=C(O)c1ccc2nc(Cc3ccc(-c4cccc(OCC56CCC(CC5)CC6)n4)cc3)n(C[C@@H]3CCO3)c2c1` [Example 13, (S)-2-(4-(6-(bicyclo[2.2.2]octan-1-ylmethoxy)pyridin-2-yl)benzyl)-1-(oxetan-2-ylmethyl)-1H-benzo[d]imidazol-6-carboxylic acid], the half-maximal effective concentration (EC50) was > 80 nM.

The term EC50 denotes the concentration that produces a half-maximal response. Lower therefore signals a more potent agent.

Values taken from patent US20240300928A1, “GLP-1 RECEPTOR AGONIST, PHARMACEUTICAL COMPOSITION COMPRISING SAME, AND METHOD FOR PREPARING SAME” (LG CHEM, LTD., priority 2021, published 2024).
